Data on seven molecules can be found in patent US6417397B1, “N-substituted alkylamino acids for use as amino-protecting groups” (The Regents of the University of California, San Diego, priority 1999, dated 2002).

A short description of the data set: Acidolysis (rate of scission) of acylated NMeAib amides with 2% TFA in acetonitrile. Type of data set: physicochemical. The following applies: for t½ of protecting group: mild acidic conditions (2% TFA in acetonitrile). From the text:
In accordance with the present invention, it has been discovered that the rate of reaction can be altered simply by modifying X. Thus, for electron-donating X groups the rate of scission (the sensitivity to acidic conditions) increases. The opposite effect holds true for electron-withdrawing X groups. Four p-substituted benzoyl-N—MeAib—Phe—OMe (7a-d) compounds were subjected to acidic conditions (2% trifluoroacetic acid (TFA) in acetonitrile) and the rate of scission measured for each protecting group.
The equation representing the line in FIG. 1 is particularly useful because it allows one to predict the rate of scission for any m-substituted or p-substituted X—C6H4C(O)—NMeAib amide where a for the parent acid is known. […]

The mark [1] stands for this setting: acidolysis with 2% TFA in acetonitrile.

Take p-N(CH3)2C6H4C(O)—NMeAib: the “half life predicted from the linear free energy equation of FIG. 1” value (predicted from σ of the parent acid, X = dimethylamino) is listed as “about 29 seconds”.

Take p-nitro-benzoyl-NMeAib: the “t½ of protecting group” value was 12 h.

For `COC(=O)[C@H](Cc1ccccc1)NC(=O)C(C)(C)N(C)C(=O)c1ccc(C#N)cc1` [CN, p-CN—C6H4C(O)—NMeAib—Phe—OMe], under setting [1], the “Half-life” value came out at 8 h and the “k” value is 2.3e-05 ± 1e-06 s⁻¹.

On to `COC(=O)[C@H](Cc1ccccc1)NC(=O)C(C)(C)N(C)C(=O)c1ccc(Cl)cc1` [Cl, p-Cl—C6H4C(O)—NMeAib—Phe—OMe], for which, for the setting “2% TFA in acetonitrile”, the Half-life entry is “about 2 hours”. Moreover, under setting [1], the “Half-life” value turned out to be 2 h and the “k” value came to 8.3e-05 ± 3e-06 s⁻¹.

In the case of `COC(=O)[C@H](Cc1ccccc1)NC(=O)C(C)(C)N(C)C(=O)c1ccc(C(F)(F)F)cc1` [CF3, p-CF3—C6H4C(O)—NMeAib—Phe—OMe], under setting [1], the “Half-life” value came out at 5 h and the “k” value stood at 3.7e-05 ± 2e-06 s⁻¹.

Regarding `COc1ccc(C(=O)N(C)C(C)(C)C(=O)O)cc1` [p-methoxy-benzoyl-NMeAib], the “t½ of protecting group” value was determined as 0.333 h.

With `COC(=O)[C@H](Cc1ccccc1)NC(=O)C(C)(C)N(C)C(=O)c1ccc([N+](=O)[O-])cc1` [NO2, p-NO2—C6H4—C(O)—NMeAib—Phe—OMe], for the setting “2% TFA in acetonitrile”, the Half-life result is “about 12 hours”. Besides, under setting [1], the “Half-life” value is given as 12 h and the “k” value amounted to 1.5e-05 ± 1e-06 s⁻¹.
